Data taken from patent US10670605B2, “Cysteine reactive probes and uses thereof” (The Scripps Research Institute, priority 2015, dated 2020).

Legend:
Test in all cases: Competitive isoTOP-ABPP, cell lysates
Type in all cases: binding
[1] = biological target: GSTP1 C48 (P09211) (Homo sapiens, UniProt P09211); conditions: for isoTOP-ABPP reactivity ratio, P09211_C48: 500 μm; for isoTOP-ABPP ratio, P09211_C48: 500 μM, invitro
[2] = biological target: DCUN1D1 C115 (Q96GG9) (Homo sapiens, UniProt Q96GG9)
[3] = biological target: T1, PDIA6 C190 (Q15084) (Homo sapiens, UniProt Q15084); conditions: for isoTOP-ABPP ratio, Q15084_C190: 500 μM, invitro
T1 sequence (Q15084 20-440): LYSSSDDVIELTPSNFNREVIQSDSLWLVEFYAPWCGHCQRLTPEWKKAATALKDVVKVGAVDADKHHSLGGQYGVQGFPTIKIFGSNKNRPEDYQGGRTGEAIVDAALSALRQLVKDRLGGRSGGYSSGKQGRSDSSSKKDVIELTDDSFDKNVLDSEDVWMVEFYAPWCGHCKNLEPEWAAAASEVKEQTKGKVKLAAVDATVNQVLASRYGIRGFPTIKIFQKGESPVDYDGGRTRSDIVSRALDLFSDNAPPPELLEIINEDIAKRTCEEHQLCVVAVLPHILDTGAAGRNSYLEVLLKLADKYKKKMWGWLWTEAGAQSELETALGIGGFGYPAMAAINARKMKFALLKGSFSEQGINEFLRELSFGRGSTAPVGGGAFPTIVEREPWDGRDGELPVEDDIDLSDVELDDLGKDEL

[4] = biological target: XPO1 C34 (O14980) (Homo sapiens, UniProt O14980); conditions: for isoTOP-ABPP reactivity ratio, O14980_C34: 500 μm; for isoTOP-ABPP ratio, O14980_C34: 500 μM, invitro
[5] = biological target: PRMT1 C109 (Q99873) (Homo sapiens, UniProt Q99873); conditions: for isoTOP-ABPP reactivity ratio, Q99873_C109: 500 μm; for isoTOP-ABPP ratio, Q99873_C109: 500 μM, invitro
[6] = biological target: GNB2L1 C182 (P63244) (Homo sapiens, UniProt P63244); conditions: for isoTOP-ABPP ratio, P63244_C182: 500 μM, invitro
[7] = biological target: T2, PDE12 C108 (Q6L8Q7) (Homo sapiens, UniProt Q6L8Q7)
T2 sequence (Q6L8Q7 43-609): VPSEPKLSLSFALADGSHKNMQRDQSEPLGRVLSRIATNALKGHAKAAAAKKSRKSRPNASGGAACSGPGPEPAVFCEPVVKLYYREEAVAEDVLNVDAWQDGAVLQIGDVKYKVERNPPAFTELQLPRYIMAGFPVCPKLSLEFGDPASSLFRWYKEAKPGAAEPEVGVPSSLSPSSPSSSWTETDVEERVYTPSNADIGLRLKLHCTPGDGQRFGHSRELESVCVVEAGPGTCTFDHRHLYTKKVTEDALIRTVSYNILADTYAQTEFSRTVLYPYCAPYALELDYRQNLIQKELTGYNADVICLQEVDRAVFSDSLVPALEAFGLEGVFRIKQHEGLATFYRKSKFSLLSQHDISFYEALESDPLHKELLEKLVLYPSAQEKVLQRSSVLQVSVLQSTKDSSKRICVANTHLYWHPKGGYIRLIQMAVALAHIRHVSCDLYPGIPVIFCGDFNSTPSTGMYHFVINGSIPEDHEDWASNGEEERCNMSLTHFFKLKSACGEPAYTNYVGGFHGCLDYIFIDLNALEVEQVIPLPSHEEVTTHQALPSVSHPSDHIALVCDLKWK

[8] = biological target: T3, MGMT C150 (P16455) (Homo sapiens, UniProt P16455); conditions: for isoTOP-ABPP ratio (reactivity profile), P16455_C150: 500 μm in-vitro ramos
T3 sequence (P16455 1-207): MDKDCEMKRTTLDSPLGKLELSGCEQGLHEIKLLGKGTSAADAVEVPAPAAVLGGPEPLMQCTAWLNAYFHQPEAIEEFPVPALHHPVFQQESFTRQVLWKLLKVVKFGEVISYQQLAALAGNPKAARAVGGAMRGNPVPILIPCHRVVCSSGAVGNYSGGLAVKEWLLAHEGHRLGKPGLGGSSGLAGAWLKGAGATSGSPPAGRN

[9] = biological target: ZNF217 C286 (O75362) (Homo sapiens, UniProt O75362); conditions: for isoTOP-ABPP ratio O75362_C286: 500 μM, invitro
ZNF217 C286 (O75362), sequence (O75362 whole entry): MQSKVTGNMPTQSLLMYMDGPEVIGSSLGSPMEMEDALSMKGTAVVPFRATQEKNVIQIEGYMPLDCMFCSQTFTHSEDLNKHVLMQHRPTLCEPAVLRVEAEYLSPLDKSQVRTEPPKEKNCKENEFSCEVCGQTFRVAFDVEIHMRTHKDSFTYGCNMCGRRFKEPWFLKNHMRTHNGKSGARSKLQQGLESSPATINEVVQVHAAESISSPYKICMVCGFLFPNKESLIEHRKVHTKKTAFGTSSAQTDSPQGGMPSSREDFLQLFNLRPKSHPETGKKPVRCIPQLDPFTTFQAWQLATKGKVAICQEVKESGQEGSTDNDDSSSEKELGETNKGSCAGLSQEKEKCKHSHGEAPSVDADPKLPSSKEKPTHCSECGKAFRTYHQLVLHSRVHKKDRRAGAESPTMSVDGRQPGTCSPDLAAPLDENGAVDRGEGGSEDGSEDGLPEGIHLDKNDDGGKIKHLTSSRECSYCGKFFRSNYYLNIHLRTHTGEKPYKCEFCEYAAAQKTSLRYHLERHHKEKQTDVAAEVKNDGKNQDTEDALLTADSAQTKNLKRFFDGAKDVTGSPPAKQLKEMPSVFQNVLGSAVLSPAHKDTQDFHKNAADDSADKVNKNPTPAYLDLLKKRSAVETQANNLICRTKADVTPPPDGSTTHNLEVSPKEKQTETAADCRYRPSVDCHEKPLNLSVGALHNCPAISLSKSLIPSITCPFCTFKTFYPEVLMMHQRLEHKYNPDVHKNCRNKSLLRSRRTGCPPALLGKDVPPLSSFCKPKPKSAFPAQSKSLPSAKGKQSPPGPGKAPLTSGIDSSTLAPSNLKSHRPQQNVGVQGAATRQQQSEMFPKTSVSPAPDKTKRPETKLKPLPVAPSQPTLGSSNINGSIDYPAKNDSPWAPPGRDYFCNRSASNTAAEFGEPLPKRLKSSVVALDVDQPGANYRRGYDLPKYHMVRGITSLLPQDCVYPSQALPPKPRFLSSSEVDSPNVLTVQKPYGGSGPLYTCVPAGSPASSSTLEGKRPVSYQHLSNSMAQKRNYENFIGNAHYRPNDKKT

DCUN1D1 C115 (Q96GG9), sequence (Q96GG9 whole entry): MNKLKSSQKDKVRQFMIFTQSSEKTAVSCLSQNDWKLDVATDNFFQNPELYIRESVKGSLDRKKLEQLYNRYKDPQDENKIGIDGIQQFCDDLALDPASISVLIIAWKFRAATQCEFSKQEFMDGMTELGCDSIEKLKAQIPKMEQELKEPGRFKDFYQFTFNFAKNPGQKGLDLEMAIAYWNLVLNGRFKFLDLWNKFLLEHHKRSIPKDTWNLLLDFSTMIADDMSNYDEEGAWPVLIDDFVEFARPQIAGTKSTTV
XPO1 C34 (O14980), sequence (O14980 whole entry): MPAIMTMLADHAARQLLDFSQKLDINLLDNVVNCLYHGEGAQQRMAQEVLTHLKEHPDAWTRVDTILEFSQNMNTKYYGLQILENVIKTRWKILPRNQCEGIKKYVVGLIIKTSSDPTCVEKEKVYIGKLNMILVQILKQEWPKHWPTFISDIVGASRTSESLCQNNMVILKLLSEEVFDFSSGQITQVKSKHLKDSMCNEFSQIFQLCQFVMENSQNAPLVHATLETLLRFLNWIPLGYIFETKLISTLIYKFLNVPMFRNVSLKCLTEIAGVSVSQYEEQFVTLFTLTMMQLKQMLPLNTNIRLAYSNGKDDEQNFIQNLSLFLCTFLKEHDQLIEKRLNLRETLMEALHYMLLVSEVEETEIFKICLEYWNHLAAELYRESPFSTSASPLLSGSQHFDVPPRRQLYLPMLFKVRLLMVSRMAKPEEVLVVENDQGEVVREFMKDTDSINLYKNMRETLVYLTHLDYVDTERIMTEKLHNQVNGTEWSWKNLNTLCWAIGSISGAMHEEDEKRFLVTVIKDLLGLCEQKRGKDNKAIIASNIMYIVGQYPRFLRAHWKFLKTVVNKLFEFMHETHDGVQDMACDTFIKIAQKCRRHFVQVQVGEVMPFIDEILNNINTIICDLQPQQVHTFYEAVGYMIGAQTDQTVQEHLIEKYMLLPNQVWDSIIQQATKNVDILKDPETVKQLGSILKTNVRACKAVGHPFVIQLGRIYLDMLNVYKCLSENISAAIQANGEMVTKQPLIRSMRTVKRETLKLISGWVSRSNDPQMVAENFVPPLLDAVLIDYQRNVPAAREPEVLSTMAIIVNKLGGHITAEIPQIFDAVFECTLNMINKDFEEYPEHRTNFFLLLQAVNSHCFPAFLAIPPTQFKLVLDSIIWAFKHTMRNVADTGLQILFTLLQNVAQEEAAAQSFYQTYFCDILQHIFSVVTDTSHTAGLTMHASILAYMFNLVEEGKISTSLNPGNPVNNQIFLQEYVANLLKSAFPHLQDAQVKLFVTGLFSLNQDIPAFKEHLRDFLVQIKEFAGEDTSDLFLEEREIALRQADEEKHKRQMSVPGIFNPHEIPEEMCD
GSTP1 C48 (P09211), sequence (P09211 whole entry): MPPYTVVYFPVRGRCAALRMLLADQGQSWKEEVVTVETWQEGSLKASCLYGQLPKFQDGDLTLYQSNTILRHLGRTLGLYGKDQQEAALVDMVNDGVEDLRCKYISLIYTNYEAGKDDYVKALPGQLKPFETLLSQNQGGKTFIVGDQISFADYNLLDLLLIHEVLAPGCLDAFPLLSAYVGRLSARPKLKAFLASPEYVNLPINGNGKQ
PRMT1 C109 (Q99873), sequence (Q99873 whole entry): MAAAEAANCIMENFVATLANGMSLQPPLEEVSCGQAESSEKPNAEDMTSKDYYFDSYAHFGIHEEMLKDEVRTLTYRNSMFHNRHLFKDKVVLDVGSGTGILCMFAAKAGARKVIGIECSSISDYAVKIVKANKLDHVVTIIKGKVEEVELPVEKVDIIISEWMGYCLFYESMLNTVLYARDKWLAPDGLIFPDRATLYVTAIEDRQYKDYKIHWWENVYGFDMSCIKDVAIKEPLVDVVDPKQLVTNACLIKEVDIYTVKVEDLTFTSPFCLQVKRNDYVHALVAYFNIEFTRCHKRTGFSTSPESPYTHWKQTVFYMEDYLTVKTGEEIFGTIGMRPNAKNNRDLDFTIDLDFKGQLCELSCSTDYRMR

With `CC(Br)C(=O)Nc1cc(C(F)(F)F)cc(C(F)(F)F)c1` (centres unmarked) [compound 24] the “isoTOP-ABPP ratio (reactivity profile), P09211_C48” value ([1]; 500 μm in-vitro ramos) was 1.6, the “isoTOP-ABPP ratio (reactivity profile), Q96GG9_C115” value (from here on “isoTOP-ABPP ratio … Q96GG9_C115”) ([2]; 500 μm in-vitro ramos) was 1.7 and the “isoTOP-ABPP ratio (reactivity profile), Q15084_C190” value ([3]; 500 μm in-vitro ramos) was 1.7. For the same compound, the “isoTOP-ABPP ratio (reactivity profile), O14980_C34” value ([4]; 500 μm in-vitro ramos) was 1.1, the “isoTOP-ABPP ratio (reactivity profile), Q99873_C109” value ([5]; 500 μm in-vitro ramos) was 1.0 and the “isoTOP-ABPP ratio (reactivity profile), P63244_C182” value ([6]; 500 μm in-vitro ramos) was 2.6. For the same compound, the “isoTOP-ABPP ratio (reactivity profile), Q6L8Q7_C108” value ([7]; 500 μm in-vitro ramos) was 1.4 and the “isoTOP-ABPP ratio (reactivity profile), P16455_C150” value [8] was 4.0.

With `Cc1ccc(C=C(C#N)C(=O)NCCN2CCOCC2)cc1` [compound 41] the “isoTOP-ABPP reactivity ratio, P09211_C48” value ([1]; in-vitro_ramos) was 0.9, the “isoTOP-ABPP reactivity ratio, P09211_C48” value ([1]; in-vitro_ramos_231) was 1.3 and the “isoTOP-ABPP reactivity ratio, Q15084_C190” value ([3]; 500 μm, in-vitro_ramos_231) was 1.0. For the same compound, the “isoTOP-ABPP reactivity ratio, O14980_C34” value ([4]; in-vitro_ramos) was 2.0, the “isoTOP-ABPP reactivity ratio, O14980_C34” value ([4]; in-vitro_ramos_231) was 3.1 and the “isoTOP-ABPP reactivity ratio, Q99873_C109” value ([5]; in-vitro_ramos) was 0.9. The “isoTOP-ABPP reactivity ratio, Q99873_C109” value ([5]; in-vitro_ramos_231) was 0.9, the “isoTOP-ABPP reactivity ratio, P63244_C182” value ([6]; 500 μm, in-vitro_ramos) was 4.7 and the “isoTOP-ABPP reactivity ratio, O75362_C286” value ([9]; 500 μm, in-vitro_ramos) was 0.6. For the same compound, the “isoTOP-ABPP reactivity ratio, Q6L8Q7_C108” value ([7]; 500 μm, in-vitro_ramos_231) was 1.3 and the “isoTOP-ABPP reactivity ratio, P16455_C150” value ([8]; 500 μm, in-vitro_ramos) was 0.9.

For `O=C(CCl)NCCc1c[nH]c2ccccc12` [compound 13], the “isoTOP-ABPP ratio, P09211_C48” value [1]; 231 was 1.5, the “isoTOP-ABPP ratio, P09211_C48” value ([1]; ramos) was 1.2 and the “isoTOP-ABPP ratio, Q15084_C190” value [3]; 231 was 1.5. For the same compound, the “isoTOP-ABPP ratio, Q15084_C190” value ([3]; ramos) was 1.3, the “isoTOP-ABPP ratio, O14980_C34” value [4]; 231 was 0.9 and the “isoTOP-ABPP ratio, O14980_C34” value ([4]; ramos) was 0.7. The “isoTOP-ABPP ratio, Q99873_C109” value [5]; 231 was 1.0, the “isoTOP-ABPP ratio, Q99873_C109” value ([5]; ramos) was 0.9 and the “isoTOP-ABPP ratio, P63244_C182” value [6]; 231 was 1.4. The “isoTOP-ABPP ratio, P63244_C182” value ([6]; ramos) was 0.8, the “isoTOP-ABPP ratio O75362_C286” value [9]; 231 was 0.9 and the “isoTOP-ABPP ratio O75362_C286” value ([9]; ramos) was 0.9. The “isoTOP-ABPP ratio, Q6L8Q7_C108” value ([7]; 500 μM, invitro, ramos) was 1.0 and the “isoTOP-ABPP ratio, P16455_C150” value ([8]; 500 μM, invitro, ramos) was 4.2.

For `O=C(CCl)N1CCOCC1` [compound 22], the “isoTOP-ABPP ratio (reactivity profile), P09211_C48” value ([1]; 500 μm in-vitro ramos) was 0.7, the “isoTOP-ABPP ratio (reactivity profile), P09211_C48” value ([1]; 500 μm in-vitro ramos_231) was 0.9 and the “isoTOP-ABPP ratio … Q96GG9_C115” value ([2]; 500 μm in-vitro ramos) was 0.8. For the same compound, the “isoTOP-ABPP ratio … Q96GG9_C115” value ([2]; 500 μm in-vitro ramos_231) was 1.0, the “isoTOP-ABPP ratio (reactivity profile), Q15084_C190” value ([3]; 500 μm in-vitro ramos) was 4.2 and the “isoTOP-ABPP ratio (reactivity profile), Q15084_C190” value ([3]; 500 μm in-vitro ramos_231) was 2.2. For the same compound, the “isoTOP-ABPP ratio (reactivity profile), O14980_C34” value ([4]; 500 μm in-vitro ramos_231) was 1.1, the “isoTOP-ABPP ratio (reactivity profile), Q99873_C109” value ([5]; 500 μm in-vitro ramos) was 1.0 and the “isoTOP-ABPP ratio (reactivity profile), Q99873_C109” value ([5]; 500 μm in-vitro ramos_231) was 1.0. The “isoTOP-ABPP ratio (reactivity profile), P63244_C182” value ([6]; 500 μm in-vitro ramos_231) was 1.6 and the “isoTOP-ABPP ratio (reactivity profile), P16455_C150” value [8] was 2.9.
